Data published in US20260146035A1, “FUSED BICYCLIC COMPOUNDS AND THEIR USE AS MER AND AXL INHIBITORS” (DONG-A ST CO., LTD., priority 2022, published 2026).
Read-outs that look alike come from different tables or passages of the source.

How the values were obtained:
human MER (528-end) = target: T1, human MER (528-end) (Homo sapiens, UniProt Q12866); assay: HTRF kinase activity biochemical assay, MER; details: 10 μM ATP, 30 minutes pre-incubation; read-out: HTRF MERTK IC50
T1 construct: human MER (528-end); purchased Camnabio, Japan
T1 sequence (Q12866 528-999 limits assumed): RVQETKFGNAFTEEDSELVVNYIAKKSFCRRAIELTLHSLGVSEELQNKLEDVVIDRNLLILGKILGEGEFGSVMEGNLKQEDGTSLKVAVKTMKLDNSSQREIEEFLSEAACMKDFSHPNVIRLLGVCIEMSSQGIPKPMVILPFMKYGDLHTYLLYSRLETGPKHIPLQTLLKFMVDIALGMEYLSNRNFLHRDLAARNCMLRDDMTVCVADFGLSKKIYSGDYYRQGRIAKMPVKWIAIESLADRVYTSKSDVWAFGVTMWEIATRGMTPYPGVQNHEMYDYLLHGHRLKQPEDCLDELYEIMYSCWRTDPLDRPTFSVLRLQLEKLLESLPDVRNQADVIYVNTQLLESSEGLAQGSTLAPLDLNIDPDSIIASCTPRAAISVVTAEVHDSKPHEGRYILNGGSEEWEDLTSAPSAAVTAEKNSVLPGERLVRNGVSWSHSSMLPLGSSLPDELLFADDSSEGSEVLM

human TYRO3 (455-end) = target: T2, human TYRO3 (455-end) (Homo sapiens, UniProt Q06418); assay: HTRF kinase activity biochemical assay, TYRO3
T2 construct: TYRO3 (455-end); purchased SignalChem, Canada
T2 sequence (Q06418 455-890 limits assumed): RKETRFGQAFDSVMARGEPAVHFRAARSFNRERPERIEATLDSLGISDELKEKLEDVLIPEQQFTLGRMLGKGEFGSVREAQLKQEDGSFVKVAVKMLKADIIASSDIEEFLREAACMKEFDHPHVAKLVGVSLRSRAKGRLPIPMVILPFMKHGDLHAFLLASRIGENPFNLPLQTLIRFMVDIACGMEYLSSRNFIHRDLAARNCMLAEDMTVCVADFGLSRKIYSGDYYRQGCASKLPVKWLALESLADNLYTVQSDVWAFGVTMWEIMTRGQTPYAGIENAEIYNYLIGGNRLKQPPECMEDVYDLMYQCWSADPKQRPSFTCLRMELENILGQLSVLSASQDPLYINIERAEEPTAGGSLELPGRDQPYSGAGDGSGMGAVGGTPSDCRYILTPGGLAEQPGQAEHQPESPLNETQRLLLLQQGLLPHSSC

human AXL (473-end) = target: T3, human AXL (473-end) (Homo sapiens, UniProt P30530); assay: HTRF kinase activity biochemical assay, AXL; details: 10 μM ATP, 30 minutes pre-incubation
T3 construct: human AXL (473-end); purchased SignalChem, Canada
T3 sequence (P30530 473-894 limits assumed): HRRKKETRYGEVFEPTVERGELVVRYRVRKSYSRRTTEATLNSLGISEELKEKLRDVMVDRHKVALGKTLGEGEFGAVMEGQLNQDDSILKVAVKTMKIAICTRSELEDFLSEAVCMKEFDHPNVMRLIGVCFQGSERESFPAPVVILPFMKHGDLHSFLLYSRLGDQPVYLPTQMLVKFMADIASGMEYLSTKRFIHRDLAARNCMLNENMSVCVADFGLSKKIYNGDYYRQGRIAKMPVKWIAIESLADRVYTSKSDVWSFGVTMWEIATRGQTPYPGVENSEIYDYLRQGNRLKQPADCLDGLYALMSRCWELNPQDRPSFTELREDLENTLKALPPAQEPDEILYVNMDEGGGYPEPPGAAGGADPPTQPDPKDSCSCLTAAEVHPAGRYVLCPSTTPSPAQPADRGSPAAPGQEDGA

[1] = 10 μM ATP, 30 minutes pre-incubation, read-out: HTRF TYRO IC50

Compound | IC50 (human MER (528-end)) [nM] | IC50 (human TYRO3 (455-end); [1]) [nM] | IC50 (human AXL (473-end)) [nM] | IC50 (human TYRO3 (455-end)) [nM]
Nc1ncc(C(F)(F)F)cc1C(=O)N[C@H]1CCC[C@@H]1OCc1ccc(-c2ccc3c(c2)OCCC3N2CCN(CCO)CC2)cc1 (stereo partly drawn) [Example 133, 2-amino-N-{(1S,2S)-2-[(4-{4-[4-(2-hydroxyethyl)piperazin-1-yl]-3,4-dihydro-2H-1-benzopyran-7-yl}phenyl)methoxy]cyclopentyl}-5-(trifluoromethyl)pyridine-3-carboxamide] | < 10 | > 1000 | < 10 | –
COc1ccnc(N)c1C(=O)N[C@H]1CCC[C@@H]1OCc1ccc(-c2ccc3c(c2)CC[C@@H]3N2CCN(C)CC2)cc1 [Example 139, 2-amino-4-methoxy-N-[(1S,2S)-2-({4-[(1S)-1-(4-methylpiperazin-1-yl)-2,3-dihydro-1H-inden-5-yl]phenyl}methoxy)cyclopentyl]pyridine-3-carboxamide] | < 10 | 100 to 1000 | < 10 | –
Nc1ncc(-c2cccnc2F)cc1C(=O)N[C@H]1CCC[C@@H]1OCc1ccc(-c2ccc3c(c2)OCCC3N2CCN(CCO)CC2)cc1 (stereo partly drawn) [Example 134, 6-amino-2′-fluoro-N-{(1S,2S)-2-[(4-{4-[4-(2-hydroxyethyl)piperazin-1-yl]-3,4-dihydro-2H-1-benzopyran-7-yl}phenyl)methoxy]cyclopentyl}[3,3′-bipyridine]-5-carboxamide] | < 10 | 100 to 1000 | < 10 | –
Cc1ncc(-c2cnc(N)c(C(=O)N[C@H]3CCC[C@@H]3OCc3ccc(-c4ccc5c(c4)CC[C@@H]5N4CCN(CCO)CC4)cc3)c2)s1 [Example 172, 2-amino-N-{(1S,2S)-2-[(4-{(1S)-1-[4-(2-hydroxyethyl)piperazin-1-yl]-2,3-dihydro-1H-inden-5-yl}phenyl)methoxy]cyclopentyl}-5-(2-methyl-1,3-thiazol-5-yl)pyridine-3-carboxamide] | < 10 | 10 to 100 | < 10 | –
CC1(C)CC(N2CCN(C(CO)CO)CC2)c2ccc(-c3ccc(CO[C@H]4CCC[C@@H]4NC(=O)c4cc(-c5cccnc5F)cnc4N)cc3)cc21 (stereo partly drawn) [Example 140, 6-amino-N-{(1S,2S)-2-[(4-{1-[4-(1,3-dihydroxypropan-2-yl)piperazin-1-yl]-3,3-dimethyl-2,3-dihydro-1H-inden-5-yl}phenyl)methoxy]cyclopentyl}-2′-fluoro[3,3′-bipyridine]-5-carboxamide] | < 10 | 100 to 1000 | < 10 | –
COc1c(-c2cnn(C)c2)cnc(N)c1C(=O)N[C@H]1CCC[C@@H]1OCc1ccc(-c2ccc3c(c2)CC[C@@H]3N2CCN(C)CC2)cc1 [Example 157, 2-amino-4-methoxy-N-[(1S,2S)-2-({4-[(1S)-1-(4-methylpiperazin-1-yl)-2,3-dihydro-1H-inden-5-yl]phenyl}methoxy)cyclopentyl]-5-(1-methyl-1H-pyrazol-4-yl)pyridine-3-carboxamide] | < 10 | 100 to 1000 | < 10 | –
CCCC1(C)CN(C2CCN(CCO)CC2)c2ccc(-c3ccc(CO[C@H]4CCC[C@@H]4NC(=O)c4cc(-c5cnn(C)c5)cnc4N)cc3)cc21 (mixture of isomers) [Example 39, 2-amino-N-{(1S,2S)-2-[(4-{1-[1-(2-hydroxyethyl)piperidin-4-yl]-3-methyl-3-propyl-2,3-dihydro-1H-indol-5-yl}phenyl)methoxy]cyclopentyl}-5-(1-methyl-1H-pyrazol-4-yl)pyridine-3-carboxamide] | < 10 | < 10 | < 10 | –
CN1CCN([C@H]2CCc3cc(-c4ccc(CO[C@H]5CCC[C@@H]5NC(=O)c5cc(-c6ccn(C)c(=O)c6)cnc5N)cc4)ccc32)CC1 [Example 115, 6-amino-1′-methyl-N-[(1S,2S)-2-({4-[(1S)-1-(4-methylpiperazin-1-yl)-2,3-dihydro-1H-inden-5-yl]phenyl}methoxy)cyclopentyl]-2′-oxo-1′,2′-dihydro[3,4′-bipyridine]-5-carboxamide] | < 10 | 100 to 1000 | < 10 | –
CN1CCC(n2ccc3cc(-c4ccc(CO[C@H]5CCC[C@@H]5NC(=O)c5cc(-c6cnn(C)c6)cnc5N)cc4)ccc32)CC1 [Example 6, 2-amino-N-[(1S,2S)-2-({4-[1-(1-methylpiperidin-4-yl)-1H-indol-5-yl]phenyl}methoxy)cyclopentyl]-5-(1-methyl-1H-pyrazol-4-yl)pyridine-3-carboxamide] | < 10 | 100 to 1000 | < 10 | –
CN1CCN([C@H]2CC(C)(C)c3cc(-c4ccc(CO[C@H]5CCC[C@@H]5NC(=O)c5cc(-c6cccnc6F)cnc5N)cc4)ccc32)CC1 [Example 150, 6-amino-N-[(1S,2S)-2-({4-[(1S)-3,3-dimethyl-1-(4-methylpiperazin-1-yl)-2,3-dihydro-1H-inden-5-yl]phenyl}methoxy)cyclopentyl]-2′-fluoro[3,3′-bipyridine]-5-carboxamide] | < 10 | 10 to 100 | < 10 | –
Cn1cc(-c2cnc(N)c(C(=O)N[C@H]3CCC[C@@H]3OCc3ccc(-c4ccc5c(c4)C[C@H](F)[C@@H]5N4CCN(CCO)CC4)cc3)c2)cn1 (relative stereo) [Example 85, 2-amino-N-{(1S,2S)-2-[(4-{(1R*,2S*)-2-fluoro-1-[4-(2-hydroxyethyl)piperazin-1-yl]-2,3-dihydro-1H-inden-5-yl}phenyl)methoxy]cyclopentyl}-5-(1-methyl-1H-pyrazol-4-yl)pyridine-3-carboxamide] | < 10 | 100 to 1000 | < 10 | –
CN1CCN([C@H]2CCc3cc(-c4ccc(CO[C@H]5CCC[C@@H]5NC(=O)c5cc(-c6ccc(C#N)nc6)cnc5N)cc4)ccc32)CC1 [Example 154, 6-amino-6′-cyano-N-[(1S,2S)-2-({4-[(1S)-1-(4-methylpiperazin-1-yl)-2,3-dihydro-1H-inden-5-yl]phenyl}methoxy)cyclopentyl][3,3′-bipyridine]-5-carboxamide] | < 10 | 100 to 1000 | < 10 | –
CN(C)CC(=O)N1CCc2cc(-c3ccc(CO[C@H]4CCC[C@@H]4NC(=O)c4cc(-c5cnn(C)c5)cnc4N)cc3)ccc21 [Example 2, 2-amino-N-{(1S,2S)-2-[(4-{1-[(dimethylamino)acetyl]-2,3-dihydro-1H-indol-5-yl}phenyl)methoxy]cyclopentyl}-5-(1-methyl-1H-pyrazol-4-yl)pyridine-3-carboxamide] | 100 to 1000 | > 1000 | 100 to 1000 | –
CC1(C)C(=O)N(C2CCN(CCO)CC2)c2ccc(-c3ccc(CO[C@H]4CCC[C@@H]4NC(=O)c4cc(-c5ccc(F)nc5)cnc4N)cc3)nc21 [Example 74, 6-amino-6′-fluoro-N-{(1S,2S)-2-[(4-{1-[1-(2-hydroxyethyl)piperidin-4-yl]-3,3-dimethyl-2-oxo-2,3-dihydro-1H-pyrrolo[3,2-b]pyridin-5-yl}phenyl)methoxy]cyclopentyl}[3,3′-bipyridine]-5-carboxamide] | 100 to 1000 | – | > 1000 | 100 to 1000
Cn1cc(-c2cnc(N)c(C(=O)N[C@H]3CCC[C@@H]3OCc3ccc(-c4ccc5c(c4)CCC[C@@H]5N4CCNCC4)cc3)c2)cn1 [Example 141, 2-amino-5-(1-methyl-1H-pyrazol-4-yl)-N-[(1S,2S)-2-({4-[(5S)-5-(piperazin-1-yl)-5,6,7,8-tetrahydronaphthalen-2-yl]phenyl}methoxy)cyclopentyl]pyridine-3-carboxamide] | < 10 | 10 to 100 | < 10 | –
CN1CCN(C2CC(C)(C)c3cc(-c4ccc(CO[C@H]5CCC[C@@H]5NC(=O)c5cc(-c6cccnc6F)cnc5N)cc4)ccc32)CC1 (stereo partly drawn) [Example 108, 6-amino-N-[(1S,2S)-2-({4-[3,3-dimethyl-1-(4-methylpiperazin-1-yl)-2,3-dihydro-1H-inden-5-yl]phenyl}methoxy)cyclopentyl]-2′-fluoro[3,3′-bipyridine]-5-carboxamide] | < 10 | 10 to 100 | < 10 | –
